Data set [1] deals with stem cells. As to conditions: cultured in the absence of FGF2; cited from earlier work.
For data set [2], the system named is hiPS cell line SBI #SC101A-1. In words: hPSC culture, microscopic analysis of morphological growth pattern and proliferation. Type of data set: cell-based, human. Particulars: defined, feeder-free culture on vitronectin; Example 1 medium containing only the named factor(s); no FGF-2. On the procedure: The culture vessel was coated with 0.5 μg/cm^2 of recombinant human vitronectin as ECM. For this, 100 μl of a diluted vitronectin solution per cm^2 of culture vessel surface is applied to the culture vessel with. The coated culture vessel is left for 2 hours at room temperature. The vitronectin solution was aspirated just before seeding the cells.
The cell line used in this experiment is the human foreskin fibroblast derived hiPS cell line SBI #SC101A-1 (obtainable from System Biosciences (SBI), Palo Alto, under the defined reference number).
The stem cell culture medium was prepared as described in Example 1. For cryopreserved cells, a ROCK-Inhibitor (10 μM Y-27632 or 2 μM Thiazovivin) is added to the stem cell culture medium. Alternatively, for existing proliferating cultures a clump passage was performed as described in Example 3 below.
The hPSCs were seeded in a 1:2 to 1:3 ratio (relative to the volume of the tissue culture vessel) into the ECM coated tissue culture vessel using an appropriate amount of culture medium. For example, 2-3 ml per well are used for 6-well plates and 15-25 ml for T-75 flasks.
After plating, the subcultured hPSCs were allowed to attach overnight (12-24 hours).
A medium change was performed: the stem cell culture medium including non-attached cells was aspirated, washed once with Dulbecco's PBS, w/o Ca^2+/Mg^2+ and the cells were provided with fresh culture medium (w/o ROCK-Inhibitors).
A media change was performed every 1-3 days.
The stem cell culture medium was aspirated and the hPSCs were washed twice with Dulbecco's PBS, w/o Ca^2+/Mg^2+. Next, 200-300 μl/cm^2 of dissociation buffer was added and the solution was incubated for 6-10 minutes in the incubator at 37° C. and 5% CO2. The dissociation buffer was carefully aspirated and 1-5 ml of fresh culture medium was added. The colonies were flushed away from the surface using a serological pipet. In order to maintain cell clumps of sufficient size flushing of more than 4-5 times was avoided. Then, cell clumps were dispensed into new ECM-coated culture vessels with fresh stem cell culture medium and the culture was continued according to the cell attachment step (step 2.3) of Example 2.
Induced pluripotent stem cells were cultured in the presence of the stem cell culture medium according to Example 1 without trimipramine in order to reproduce published observations that activin a on its own cannot fully support undifferentiated maintenance of most hPSC lines (Vallier et al., 2005; Xiao et al., 2006). Initiation of the hPSC culture was performed according to Example 2, followed by subculturing the cells according to Example 3.
It was also aimed to reproduce the published partial self-renewal support capabilities of trimipramine in human pluripotent stem cells (Kumagai et al., 2013). […]

For data set [3] the following is noted: cited from earlier work; for biological half-life: under cell culture conditions.

The term half-life denotes the time needed for the level to fall by half in the phase considered.

Turning to `CCN(CC)CCCC(C)Nc1c2ccc(Cl)cc2nc2ccc(OC)cc12` (centres unmarked) [mepacrine], the “expression of pluripotency markers SSEA-3, SSEA-4 TRA-1-60, TRA-1-81 and OCT4” value (“expression” below) in data set [1] was “induce the expression of known pluripotency markers”.
Consider `CCN(CC)C(C)CN1c2ccccc2Sc2ccccc21` (centres unmarked) [profenamine], for which the “expression” value in data set [1] is “induce the expression of known pluripotency markers”.
`CC(CN1c2ccccc2Sc2ccccc21)N(C)C` (centres unmarked) [promethazine]: in data set [1], the “expression” value is “induce the expression of known pluripotency markers”.
As to `CC(CN(C)C)CN1c2ccccc2CCc2ccccc21` (centres unmarked) [trimipramine], in data set [2], the “cell proliferation / expansion of hPSC” value is reported as “not sufficient to effectively expand the human pluripotent stem cells” and the “maintenance of undifferentiated state (morphological phenotype)” value was “able to maintain the prototypical pluripotent morphological phenotype”. For the same molecule, the half-life in data set [3] is 23 h. Also, the “expression” value in data set [1] is reported as “induce the expression of known pluripotency markers”.
As to “FGF-2: growth factor (FGFR ligand) traditionally used in hPSC media”, in data set [3], the biological half-life was 5-7 hours.
Regarding “TGF-β1: growth factor (ALK5 ligand) traditionally used in hPSC media”, in data set [3], the biological half-life was 50 minutes.

B1: activin a: homodimer of the inhibin beta A subunit (UniProtKB P08476), member of the TGF-β superfamily (protein, UniProt P08476 311-426, looked up)
Inhibin beta A chain: GLECDGKVNICCKKQFFVSFKDIGWNDWIIAPSGYHANYCEGECPSHIAGTSGSSLSFHSTVINHYRMRGHSPFANLKSCCVPTKLRPMSMLYYDDGQNIIKKDIQNMIVEECGCS
modifications: Inhibin beta A chain
notes: homodimer of the inhibin beta A subunit (UniProtKB P08476), member of the TGF-β superfamily
In the case of B1, in data set [2], the “cell proliferation / expansion of hPSC” value is on record as “significant cell proliferation” and the “maintenance of undifferentiated state (morphological phenotype)” value was “not able to robustly support the maintenance of the tested hPSC line in an undifferentiated state”.

The values are drawn from patent US12234484B2, “Culture medium for pluripotent stem cells” (PROMOCELL GMBH, priority 2017, dated 2025).
